Source: patent US9394520B2, “Expansion of hematopoietic stem cells” (University of Rochester, priority 2006, dated 2016)

What was measured:
[1] = tested on: Jagged1; assay: Jagged1 mRNA by real time RT-PCR in UMR106 cells; assay type: cell-based; settings: UMR106 cells, PGE2 10^−7 M, at 2 hours, corrected for beta-actin
Protocol: UMR 106 cells were serum starved for 24 hours and then treated with a single dose of vehicle (controls) or PGE2 at a concentration of 10^-7 M. RNA was collected from both control and treated samples to assess the fold change in Jagged1 mRNA by real time RT-PCR analysis corrected for by beta-actin. FIG. 1B is a Western blot showing total protein that was collected from both control and treated samples exposed to Jagged1 antibody, C20. Positive control (+ctr) was provided by HS27a cells, a human stromal cell line with high levels of Jagged1 protein, while HS5 cells from a human stromal cell line with minimal Jagged1 levels were used as a negative control. […] UMR106 cells were serum starved for 24 hours. They were pre-treated with H89 for 30 minutes followed by a single dose of PGE2 at 10^-7 M or vehicle. RNA was collected from both control and treated samples to assess the fold change in Jagged1 RNA by real time RT-PCR analysis corrected for by β-actin. […] UMR106 cells were serum starved for 24 hours. […] Total protein was collected from both PGE2 and vehicle treated samples for Western blot analysis with Jagged1 antibody C-20. UMR106 cells were grown in DMEM supplemented with 1.5 g/l sodium bicarbonate, 10% FBS, penicillin (100 U/ml), streptomycin (100 U/ml). After three days of growth the cells were 80% confluent and media was replaced with serum-free media. After 24 hr in serum-free media, PGE2 was added in noted concentrations. UMR 106 cells were treated with the Protein Kinase A (PKA) inhibitors H89 (0.5 hr prior to PGE2 treatment), and myristoylated PKI (0.5 hr prior to PGE2 treatment). […] At the designated times, total RNA and protein were harvested. Total RNA was extracted and analyzed by real time RT-PCR, normalizing for β-actin expression and t=0. Total protein was analyzed by Western blots performed using the […] system (Invitrogen, Carlsbad, Calif.). Blots were probed with Jag1 c-20 antibody (Santa Cruz Biotechnology, Inc., Santa Cruz, Calif.), and the loading control was B-actin.

[2] = tested on: bone; assay: Bone analysis (microCT, histology) of PGE2-treated mice; assay type: in vivo
Protocol: FIG. 6A is a graph showing quantification of bone volume performed by microCT analysis of femora from mice treated with PGE2 (6 mg/kg i.p. daily for 16 days (n=8)).
Eight to ten week old FVB/N male mice were injected intraperitoneally once or twice daily for 16 days with either PGE2 (6 mg/kg body weight) or vehicle. Left hind limbs were harvested, fixed, decalcified, and processed. Right hindlimbs were harvested at the same time.
Adult C57Bl/6 male mice were treated with PGE2 for 16 days.

[3] = tested on: HES1; assay: Notch target gene HES1 expression by real time RT-PCR; assay type: cell-based; settings: UMR 206 cells, PGE2 treatment, starting at 24 hours
Protocol: FIG. 3 is a graph showing that PGE2 treatment in UMR 206 cells increased expression of the Notch target gene HES1 as determined by real time RT-PCR analysis starting at 24 hours.
At the designated times, total RNA and protein were harvested. Total RNA was extracted and analyzed by real time RT-PCR, normalizing for β-actin expression and t=0. Total protein was analyzed by Western blots performed using the XCELL SURELOCK™ system (Invitrogen, Carlsbad, Calif.). Blots were probed with Jag1 c-20 antibody (Santa Cruz Biotechnology, Inc., Santa Cruz, Calif.), and the loading control was B-actin.

[4] = tested on: Jagged1; assay: Jagged1 protein by Western blot in UMR106 cells; assay type: cell-based; settings: UMR106 cells after treatment with PGE2, Western blot, antibody C-20
Protocol: UMR 106 cells were serum starved for 24 hours and then treated with a single dose of vehicle (controls) or PGE2 at a concentration of 10^-7 M. RNA was collected from both control and treated samples to assess the fold change in Jagged1 mRNA by real time RT-PCR analysis corrected for by beta-actin. FIG. 1B is a Western blot showing total protein that was collected from both control and treated samples exposed to Jagged1 antibody, C20. Positive control (+ctr) was provided by HS27a cells, a human stromal cell line with high levels of Jagged1 protein, while HS5 cells from a human stromal cell line with minimal Jagged1 levels were used as a negative control. FIG. 2A is a graph showing that inhibition of PKA blocks PGE2-dependent increase of Jagged1 in UMR 106 cells. UMR106 cells were serum starved for 24 hours. They were pre-treated with H89 for 30 minutes followed by a single dose of PGE2 at 10^-7 M or vehicle. RNA was collected from both control and treated samples to assess the fold change in Jagged1 RNA by real time RT-PCR analysis corrected for by β-actin. […] UMR106 cells were serum starved for 24 hours. […] Total RNA was extracted and analyzed by real time RT-PCR, normalizing for β-actin expression and t=0. Total protein was analyzed by Western blots performed using the […] system (Invitrogen, Carlsbad, Calif.). […]

[5] = tested on: ST-HSC; assay: Competitive repopulation in lethally irradiated recipients; assay type: in vivo, mice; settings: donor CD45.2 to competitor CD45.1 1:2, effect limited to short-term (up to 6 weeks)
Protocol: FIGS. 11A, 11B and 11C are graphs showing engraftment data from peripheral blood from competitive repopulation analysis from CD45.2+c57bl/6 mice treated daily with PGE2 (6 mg/kg i.p. twice daily) (n=8 mice per treatment group, n=10 recipient mice per group, 2 experiments).
This effect was limited to the short-term (up to 6 weeks) (FIGS. 11A, 11B and 11C), illustrating specific ST-HSC expansion. This is a unique in vivo model of selective ST-HSC increase. This effect is best illustrated by the short lived CD11b+myeloid subset (FIGS. 11A, 11B and 11C).

## CCCCC[C@H](O)/C=C/[C@H]1[C@H](O)CC(=O)[C@@H]1C/C=C\CCCC(=O)O [PGE2, Prostaglandin E2]
[1]
  Jagged1 mRNA increase compared to vehicle: up to 5 fold
[2]; adult C57Bl/6 male mice, 16 days
  bone anabolic effect in long bones, histologically or by micro-CT imaging: no evidence of a significant bone anabolic effect
[2]; adult FVB/N male mice, 6 mg/kg/day i.p., day 12
  bone volume by microCT analysis: no significant increase
[2]; in vivo treatment with PGE2
  cortical width of the tibia: significantly increased
  tibial metaphyseal trabecularization: increased
[3]
  expression of the Notch target gene HES1: increased
[4]
  Jagged1 protein: increased
[5]
  multilineage reconstitution by donor cells from treated mice: superior multilineage reconstitution
